According to patent US10993957B2 (NuCana plc, priority 2011, dated 2021):
Read-outs that look alike come from different tables or passages of the source.

How the values were obtained:
L1210/0 = assay: Cytostatic assay, L1210/0 cells; type: cell-based, murine
From the text: (§1) The cell lines employed were L1210/0 (a leukemia cell line), FM3A/0 (a breast cancer cell line), Cem/0 (an acute lymphoblastic leukemia cell line) and HeLa (a cervical cell line).

L1210/TK^− = assay: Cytostatic assay, thymidine kinase-deficient L1210/TK^− cells; type: cell-based, murine
Cem/0 = assay: Cytostatic assay, CEM/0 cells; type: cell-based, human; settings: for CC50: read-out: CC50 Cem/0; for IC50: read-out: IC50 Cem/0
From the text: as §1

Cem/TK^− = assay: Cytostatic assay, thymidine kinase-deficient CEM/TK^− cells; type: cell-based, human; settings: for CC50: read-out: CC50 Cem/TK^−; for IC50: read-out: IC50 Cem/TK^−
HeLa = assay: Cytostatic assay, HeLa cells; type: cell-based; settings: for CC50: read-out: CC50 HeLa; for IC50: read-out: IC50 HeLa
From the text: as §1

HeLa/TK^− = assay: Cytostatic assay, HeLa/TK^− cells; type: cell-based; settings: for CC50: read-out: CC50 HeLa/TK^−; for IC50: read-out: IC50 HeLa/TK^−
From the text: as §1

L1210.Hyor = assay: Cytostatic assay, Mycoplasma hyorhinis-infected L1210 cells; settings: for % Retention: CC50 L1210 × 100 ÷ CC50 L1210/Hyor; for CC50: L1210, read-out: CC50 L1210/Hyor
From the text: Murine leukaemia L1210/0 and human T-lymphocyte CEM/0 cells were obtained from the American Type Culture Collection (ATCC) (Rockville, Md.). Human glioblastoma U87 cells were kindly provided by Dr. E. Menue (Institut Pasteur, Paris, France). […] S. Eriksson (currently at Uppsala University, Uppsala, Sweden) and Prof A. Karlsson (Karolinska Institute, Stockholm, Sweden). […] All cells were maintained in Dulbecco's modified Eagle's medium (DMEM) (Invitrogen, Carlsbad, Calif.) with 10% foetal bovine serum (FBS) (Biochrom AG, Berlin, Germany), 10 mM Hepes and 1 mM Sodium Pyruvate (Invitrogen). Cells were grown at 37° C. in a humidified incubator with a gas phase of 5% CO2.
Monolayer cells (U87 and U87.Hyor) were seeded in 48-well microtiter plates (Nunc™, Roskilde, Denmark) at 10,000 cells/well. After 24 hours, an equal volume of fresh medium containing the test compounds was added. On day 5, cells were trypsinized and counted in a Coulter counter (Analis, Suarlée, Belgium). Suspension cells (L1210/0, L1210/TK^−, L1210.Hyor, CEM/0, CEM/TK^−) were seeded in 96-well microtiter plates (Nunc™) at 60,000 cells/well in the presence of a given amount of the test compounds. The cells were allowed to proliferate for 48 h (L1210) or 72 hours (CEM) and were then counted in a Coulter counter.
Samples were also assayed for their % retention of activity in mycoplasma infected cells.
The L1210/0 cell cultures were infected with the mycoplasma species M. hyorhinis (cells designated: L1210.Hyor).

Cem/hEnt-1 = assay: Cytostatic assay, CEM cells containing the hEnt1 transporter; type: cell-based
From the text: (§2) Data are mean (±SD) of at least two to four independent experiments. Table 8 identifies the phosphoramidate motif of compounds embodying the present invention, as discussed above with respect to Table 6, but with “Naph” standing for 1-naphthyl.

Cem/hEnt-0 = assay: Cytostatic assay, CEM cells lacking the hEnt1 transporter; type: cell-based; settings: Homo sapiens, CCRF-CEM, read-out: IC50 Cem/hEnt-0
From the text: as §2

[1] = Mus musculus, L1210, read-out: IC50 L1210.Hyor
[2] = Table 6, read-out: IC50 L1210/0
[3] = Table 7, read-out: IC50 L1210/0
[4] = Table 6, read-out: IC50 L1210/TK^−
[5] = read-out: IC50 L1210.Hyor, Table 7
[6] = Mus musculus, L1210/0, Table 1, read-out: CC50 L1210/0
[7] = Mus musculus, L1210/0, Table 2, mycoplasma negative cells, read-out: CC50 L1210
[8] = Mus musculus, L1210/0, Table 6, read-out: IC50 L1210/0
[9] = Mus musculus, L1210/0, Table 7, read-out: IC50 L1210/0
[10] = Mus musculus, L1210, Table 1, read-out: CC50 L1210/TK^−
[11] = Mus musculus, L1210, Table 6, read-out: IC50 L1210/TK^−
[12] = Homo sapiens, CCRF-CEM, Table 1
[13] = Homo sapiens, CCRF-CEM, Table 6
[14] = Homo sapiens, CEM-TK(-), Table 1
[15] = Homo sapiens, CEM-TK(-), Table 6

## O=C(OCc1ccccc1)C1CCCN1P(=O)(OC[C@H]1O[C@@H](n2cc(F)c(=O)[nH]c2=O)CC1O)Oc1cccc2ccccc12 (stereo partly drawn) [CPF 577, 5-Fluoro-2′-deoxyuridine-5′-O-[1-naphthyl(benzoxy-L-prolinyl)] phosphate]
L1210/0; Mus musculus, L1210/0, read-out: CC50 L1210
  CC50: 230 nM
L1210/0; Mus musculus, L1210/0, read-out: CC50 L1210/0
  CC50: 210 ± 80 nM
L1210/0; Mus musculus, L1210/0, read-out: IC50 L1210/0, Table 6
  IC50: 210 ± 80 nM
L1210/0; Mus musculus, L1210/0, read-out: IC50 L1210/0, Table 7
  IC50: 260 ± 55 nM
L1210/TK^−; Mus musculus, L1210, read-out: CC50 L1210/TK^−
  CC50: 25000 ± 8000 nM
L1210/TK^−; Mus musculus, L1210, read-out: IC50 L1210/TK^−
  IC50: 25000 ± 8000 nM
Cem/0; Homo sapiens, CCRF-CEM
  CC50: 890 ± 350 nM
  IC50: 890 ± 350 nM
Cem/TK^−; Homo sapiens, CEM-TK(-)
  CC50: 32000 ± 9000 nM
  IC50: 35000 ± 9000 nM
HeLa; Homo sapiens, HeLa
  CC50: 1200 nM
  IC50: 1200 nM
HeLa/TK^−; Homo sapiens, HeLa
  CC50: 26000 ± 1000 nM
  IC50: 26000 ± 1000 nM
L1210.Hyor
  % Retention: 36%
L1210.Hyor; Mus musculus
  CC50: 630 nM
L1210.Hyor; [1]
  IC50: 650 ± 70 nM
L1210.Hyor; Table 7
  IC50(L1210.Hyor)/IC50(L1210/0): 2.5

## CCCCCOC(=O)C(CCSC)NP(=O)(OCC1OC(n2cc(F)c(=O)[nH]c2=O)CC1O)Oc1ccccc1 (centres unmarked) [Ph Pnt Met]
L1210/0; [2]
  IC50: 110 ± 60 nM
L1210/0; [3]
  IC50: 130 ± 7.8 nM
L1210/TK^−; [4]
  IC50: 2200 ± 500 nM
Cem/0; Table 6
  IC50: 350 ± 130 nM
Cem/TK^−; Table 6
  IC50: 13000 ± 1000 nM
HeLa; Table 6
  IC50: 150 nM
HeLa/TK^−; Table 6
  IC50: 7100 ± 1200 nM
L1210.Hyor; Table 7
  IC50(L1210.Hyor)/IC50(L1210/0): 3.2
L1210.Hyor; [5]
  IC50: 410 ± 210 nM

## CCCCOC(=O)[C@H](C)NP(=O)(OC[C@H]1O[C@@H](n2cc(F)c(=O)[nH]c2=O)CC1O)Oc1cccc2ccccc12 (stereo partly drawn) [CPF 589, 5-Fluoro-2′-deoxyuridine-5′-O-[1-naphthyl-(butoxy-L-alaninyl)] phosphate]
L1210/0; [6]
  CC50: 22 ± 4 nM
L1210/0; [7]
  CC50: 20 nM
L1210/0; [8]
  IC50: 22 ± 4 nM
L1210/0; [9]
  IC50: 9.5 ± 2.1 nM
L1210/TK^−; [10]
  CC50: 110 ± 60 nM
L1210/TK^−; [11]
  IC50: 110 ± 60 nM
Cem/0; [12]
  CC50: 64 ± 7 nM
Cem/0; [13]
  IC50: 64 ± 7 nM
Cem/TK^−; [14]
  CC50: 840 ± 600 nM
Cem/TK^−; [15]
  IC50: 840 ± 600 nM
HeLa; Homo sapiens, HeLa, Table 1
  CC50: 120 ± 20 nM
HeLa; Homo sapiens, HeLa, Table 6
  IC50: 120 ± 20 nM
HeLa/TK^−; Homo sapiens, HeLa, Table 1
  CC50: 2700 ± 1500 nM
HeLa/TK^−; Homo sapiens, HeLa, Table 6
  IC50: 2700 ± 1500 nM
L1210.Hyor
  % Retention: 32%
L1210.Hyor; Mus musculus
  CC50: 63 nM
L1210.Hyor; [1]
  IC50: 21 ± 7.1 nM
L1210.Hyor; Table 7
  IC50(L1210.Hyor)/IC50(L1210/0): 2.2

## CCC(C)C(NP(=O)(OCC1OC(n2cc(F)c(=O)[nH]c2=O)CC1O)Oc1ccccc1)C(=O)OCc1ccccc1 (mixture of isomers) [Ph Bn Ile]
L1210/0; [2]
  IC50: 76 ± 22 nM
L1210/0; [3]
  IC50: 980 ± 390 nM
L1210/TK^−; [4]
  IC50: 1100 ± 100 nM
Cem/0; Table 6
  IC50: 1000 ± 100 nM
Cem/TK^−; Table 6
  IC50: 30000 ± 10000 nM
HeLa; Table 6
  IC50: 710 ± 150 nM
HeLa/TK^−; Table 6
  IC50: 25000 ± 11000 nM
L1210.Hyor; Table 7
  IC50(L1210.Hyor)/IC50(L1210/0): 2.2
L1210.Hyor; [5]
  IC50: 2200 ± 31 nM

## CCOC(=O)C(C)(C)NP(=O)(OC[C@H]1O[C@@H](n2cc(F)c(=O)[nH]c2=O)CC1O)Oc1ccccc1 (stereo partly drawn) [CPF 394, 5-Fluoro-2′deoxyuridine-5′-O-[phenyl (ethoxy-α,α-dimethylglycine)]phosphate]
L1210/0; [6]
  CC50: 39 ± 1 nM
L1210/0; [7]
  CC50: 30 nM
L1210/0; [8]
  IC50: 39 ± 1 nM
L1210/0; [9]
  IC50: 30 ± 0.5 nM
L1210/TK^−; [10]
  CC50: 4600 nM
L1210/TK^−; [11]
  IC50: 4600 nM
Cem/0; [12]
  CC50: 650 ± 160 nM
Cem/0; [13]
  IC50: 650 ± 160 nM
Cem/TK^−; [14]
  CC50: 22000 ± 1000 nM
Cem/TK^−; [15]
  IC50: 22000 ± 1000 nM
HeLa; Homo sapiens, HeLa, Table 6
  IC50: 590 ± 90 nM
HeLa/TK^−; Homo sapiens, HeLa, Table 6
  IC50: 17000 ± 2000 nM
L1210.Hyor
  % Retention: 12%
L1210.Hyor; Mus musculus
  CC50: 260 nM
L1210.Hyor; [1]
  IC50: 260 ± 10 nM
L1210.Hyor; Table 7
  IC50(L1210.Hyor)/IC50(L1210/0): 8.7
Cem/hEnt-1; Homo sapiens, CCRF-CEM, read-out: IC50 Cem/hEnt-1
  IC50: 370 ± 140 nM
Cem/hEnt-1; read-out: IC50 Cem/hEnt-1 + NBMPR, in the presence of NBMPR
  IC50: 2560 nM
Cem/hEnt-1; read-out: IC50 Cem/hEnt-1 + dipyridamole, in the presence of dipyridamole
  IC50: 2350 nM
Cem/hEnt-0
  IC50: 5800 ± 500 nM
